Measurements as given in patent publication US7786141B2 (Vertex Pharmaceuticals Incorporated, priority 2004, dated 2010).
Like-named read-outs stand apart in the source and are kept apart here.

Legend:
M4 muscarinic receptor = molecular target: T1, M4 muscarinic receptor (Homo sapiens, UniProt P08173); test: Functional mobilization of intracellular calcium (FLIPR) in M4-CHO cells; type: cell-based
T1 construct: expressed in transfected cells; host or cells: CHO (M4-CHO)
T1 sequence (P08173 1-479): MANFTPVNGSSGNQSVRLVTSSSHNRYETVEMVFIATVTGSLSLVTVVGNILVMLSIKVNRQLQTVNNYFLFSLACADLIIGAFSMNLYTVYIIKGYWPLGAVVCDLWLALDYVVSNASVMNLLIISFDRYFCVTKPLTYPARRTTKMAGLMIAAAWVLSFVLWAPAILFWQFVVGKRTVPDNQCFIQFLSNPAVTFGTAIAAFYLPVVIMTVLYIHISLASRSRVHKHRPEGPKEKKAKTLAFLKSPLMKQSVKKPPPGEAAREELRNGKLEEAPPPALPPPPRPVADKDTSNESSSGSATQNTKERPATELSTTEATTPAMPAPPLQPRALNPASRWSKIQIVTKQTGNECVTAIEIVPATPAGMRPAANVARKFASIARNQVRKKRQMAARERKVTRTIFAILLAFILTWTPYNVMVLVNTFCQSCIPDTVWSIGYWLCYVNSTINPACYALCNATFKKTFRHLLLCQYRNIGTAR
Summary of the method: (§1)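 Intracellular calcium rise is measured by FLIPR fluorescence over 60 sec in CHO cells carrying human M1 or M4 receptors. Compounds are tested alone as agonists, or pre-incubated 15 min (or co-applied) ahead of carbachol at its EC80 to detect inhibition.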

M1 muscarinic receptor = molecular target: T2, M1 muscarinic receptor (Homo sapiens, UniProt P11229); test: Functional mobilization of intracellular calcium (FLIPR) in M1-CHO cells; type: cell-based
T2 construct: expressed in transfected cells; host or cells: CHO (M1-CHO)
T2 sequence (P11229 1-460): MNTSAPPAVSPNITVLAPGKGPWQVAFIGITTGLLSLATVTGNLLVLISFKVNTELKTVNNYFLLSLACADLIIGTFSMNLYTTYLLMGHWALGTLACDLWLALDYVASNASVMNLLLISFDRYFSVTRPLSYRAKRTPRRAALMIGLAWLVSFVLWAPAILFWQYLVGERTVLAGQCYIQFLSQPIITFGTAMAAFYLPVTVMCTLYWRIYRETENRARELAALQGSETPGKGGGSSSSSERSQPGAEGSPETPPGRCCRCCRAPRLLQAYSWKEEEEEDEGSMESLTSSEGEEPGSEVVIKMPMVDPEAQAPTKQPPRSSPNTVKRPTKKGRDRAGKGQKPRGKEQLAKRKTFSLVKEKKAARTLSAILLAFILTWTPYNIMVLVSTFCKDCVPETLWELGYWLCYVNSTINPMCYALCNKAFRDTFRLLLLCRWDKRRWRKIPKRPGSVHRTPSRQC
Summary of the method: as §1

[1] = M4 receptor, calcium mobilization
[2] = M4 receptor, calcium mobilization, read-out: M4 Efficacy
[3] = M1 receptor, calcium mobilization
[4] = M1 receptor, calcium mobilization, read-out: M1 Efficacy
[5] = Table 4, 100% efficacy is the maximum response obtained with the Carbachol control
[6] = Table 4, modulating M4 receptor
[7] = Table 4, modulating M1 receptor

O=C1CC2(CCN(C[C@@H]3C[C@H]4C=C[C@H]3C4)CC2)c2ccccc21 [compound 238] was tested, and the “M4 Activity” value (M4 muscarinic receptor; [1]) was “x (activity was measured to be greater than 1.0 μM)”, the Emax (M4 muscarinic receptor; [2]) was < 65% and the “M1 Activity” value (M1 muscarinic receptor; [3]) was “x (activity was measured to be greater than 1.0 μM)”. The Emax (M1 muscarinic receptor; [4]) was < 65%.
CC(=O)N1CC2(CCN(C3CCN(c4cncc(C)n4)CC3)CC2)c2ccccc21 [compound 489] was tested, and the Emax (M4 muscarinic receptor; [5]) was 25 to 100%, the “M4 Activity” value (M4 muscarinic receptor; [6]) was “xxx (activity was measured to be less than 2.0 μM)” and the Emax (M1 muscarinic receptor; [5]) was 25 to 100%. The “M1 Activity” value (M1 muscarinic receptor; [7]) was “xxx (activity was measured to be less than 2.0 μM)”.
With COc1ccccc1C(=O)N1CCC(N2CCC3(CC2)CN(C(=O)N(C)C)c2ccc(F)cc23)CC1 [compound 446] the Emax (M4 muscarinic receptor; [5]) was < 25%, the “M4 Activity” value (M4 muscarinic receptor; [6]) was “x (activity was measured to be greater than 5.0 μM)” and the Emax (M1 muscarinic receptor; [5]) was 25 to 100%. For the same molecule, the “M1 Activity” value (M1 muscarinic receptor; [7]) was “x (activity was measured to be greater than 5.0 μM)”.
With CCCOC(=O)N1C2CCC1CC(N1CCC3(CC1)CN(C(=O)O[C@@H]1CCOC1)c1ccc(F)cc13)C2 (some centres unmarked) [compound 297] the “M4 Activity” value (M4 muscarinic receptor; [1]) was “x (activity was measured to be greater than 1.0 μM)”, the “M4 Efficacy” value (M4 muscarinic receptor; [1]) was “xx (efficacy was calculated to be between 85% and 65%)” and the “M1 Activity” value (M1 muscarinic receptor; [3]) was “x (activity was measured to be greater than 1.0 μM)”. The “M1 Efficacy” value (M1 muscarinic receptor; [3]) was “xx (efficacy was calculated to be between 85% and 65%)”.
For CC(=O)N1CC2(CCN(CC3CCOC3)CC2)c2cc(F)ccc21 (centres unmarked) [compound 135], the “M4 Activity” value (M4 muscarinic receptor; [1]) was “xx (activity was measured to be between 0.1 μM and 1.0 μM)”, the Emax (M4 muscarinic receptor; [2]) was > 85% and the “M1 Activity” value (M1 muscarinic receptor; [3]) was “xxx (activity was measured to be less than 0.1 μM)”. For the same molecule, the Emax (M1 muscarinic receptor; [4]) was > 85%.
For CCOC(=O)N1CCC(N2CCC3(CC2)CN(C(C)=O)c2c(C(F)(F)F)cccc23)CC1 [compound 551], the Emax (M4 muscarinic receptor; [5]) was 25 to 100%, the “M4 Activity” value (M4 muscarinic receptor; [6]) was “x (activity was measured to be greater than 5.0 μM)” and the Emax (M1 muscarinic receptor; [5]) was < 25%. The “M1 Activity” value (M1 muscarinic receptor; [7]) was “x (activity was measured to be greater than 5.0 μM)”.
With CC(=O)N[C@H]1CC2(CCN(C3CCCCC3)C2)c2ccc(F)cc21 (some centres unmarked) [compound 691] the Emax (M4 muscarinic receptor; [5]) was < 25%, the “M4 Activity” value (M4 muscarinic receptor; [6]) was “x (activity was measured to be greater than 5.0 μM)” and the Emax (M1 muscarinic receptor; [5]) was 25 to 100%. For the same molecule, the “M1 Activity” value (M1 muscarinic receptor; [7]) was “x (activity was measured to be greater than 5.0 μM)”.
With CC(=O)NC1CC2(CCN(C[C@H]3C[C@H]4C=C[C@H]3C4)CC2)c2ccccc21 (some centres unmarked) [compound 392] the EC50 (M4 muscarinic receptor; M4-CHO cells, calcium mobilization (FLIPR)) was > 1000 nM, the Emax (M4 muscarinic receptor; M4-CHO cells, calcium mobilization (FLIPR), read-out: M4 Efficacy) was < 65% and the EC50 (M1 muscarinic receptor; M1-CHO cells, calcium mobilization (FLIPR)) was < 100 nM. It also gave an Emax (M1 muscarinic receptor; M1-CHO cells, calcium mobilization (FLIPR), read-out: M1 Efficacy) of 65 to 85%.
For COC(=O)N1C2CCC1CC(N1CCC3(CC1)CN(C(=O)N(C)C)c1ccc(F)cc13)C2 (centres unmarked) [compound 314], the “M4 Activity” value (M4 muscarinic receptor; [1]) was “x (activity was measured to be greater than 1.0 μM)”, the Emax (M4 muscarinic receptor; [2]) was < 65% and the “M1 Activity” value (M1 muscarinic receptor; [3]) was “xx (activity was measured to be between 0.1 μM and 1.0 μM)”. For the same molecule, the Emax (M1 muscarinic receptor; [4]) was < 65%.
In the case of O=C(O[C@@H]1CCOC1)N1CC2(CCN(C3CC4CCC(C3)N4C(=O)O[C@@H]3CCOC3)CC2)c2cc(F)ccc21 (some centres unmarked) [compound 243], the “M4 Activity” value (M4 muscarinic receptor; [1]) is reported as “x (activity was measured to be greater than 1.0 μM)”, the “M4 Efficacy” value (M4 muscarinic receptor; [1]) is reported as “xx (efficacy was calculated to be between 85% and 65%)” and the “M1 Activity” value (M1 muscarinic receptor; [3]) is reported as “xxx (activity was measured to be less than 0.1 μM)”. The “M1 Efficacy” value (M1 muscarinic receptor; [3]) was “xx (efficacy was calculated to be between 85% and 65%)”.
For CN(C)C(=O)N1CC2(CCN(C3CCN(C(=O)c4ccsc4)CC3)CC2)c2cc(F)ccc21 [compound 812], the Emax (M4 muscarinic receptor; [5]) was < 25%, the “M4 Activity” value (M4 muscarinic receptor; Table 4, M4 receptor, calcium mobilization (FLIPR)) was “x (activity was measured to be greater than 5.0 μM)” and the Emax (M1 muscarinic receptor; [5]) was 25 to 100%. For the same molecule, the “M1 Activity” value (M1 muscarinic receptor; Table 4, M1 receptor, calcium mobilization (FLIPR)) was “xx (activity was measured to be between 2.0 μM and 5.0 μM)”.
With C#CCOC(=O)N1CCC(N2CCC3(CC2)CN(C(C)=O)c2cccc(C)c23)CC1 [compound 453] the Emax (M4 muscarinic receptor; [5]) was < 25%, the “M4 Activity” value (M4 muscarinic receptor; [6]) was “x (activity was measured to be greater than 5.0 μM)” and the Emax (M1 muscarinic receptor; [5]) was 25 to 100%. For the same molecule, the “M1 Activity” value (M1 muscarinic receptor; [7]) was “xxx (activity was measured to be less than 2.0 μM)”.
With CC(=O)N1CC2(CCN(C3CCN(C(=O)O[C@@H]4CCOC4)CC3)CC2)c2cc(C)ccc21 [compound 279] the “M4 Activity” value (M4 muscarinic receptor; [1]) was “xx (activity was measured to be between 0.1 μM and 1.0 μM)”, the Emax (M4 muscarinic receptor; [2]) was < 65% and the “M1 Activity” value (M1 muscarinic receptor; [3]) was “xx (activity was measured to be between 0.1 μM and 1.0 μM)”. The Emax (M1 muscarinic receptor; [4]) was < 65%.
In the case of COc1cc2c(cc1OC)C1(CCN(C3C4CC5CC(C4)CC3C5)CC1)C[C@@H]2NC(C)=O (some centres unmarked) [compound 546], the Emax (M4 muscarinic receptor; [5]) is reported as 25 to 100%, the “M4 Activity” value (M4 muscarinic receptor; [6]) is reported as “x (activity was measured to be greater than 5.0 μM)” and the Emax (M1 muscarinic receptor; [5]) is reported as 25 to 100%. The “M1 Activity” value (M1 muscarinic receptor; [7]) was “x (activity was measured to be greater than 5.0 μM)”.
